Patent publication US5032593A, “Method of treating bronchoconstriction with 1,3-unsymmetrical straight chain alkyl-substituted 8-phenylxanthines” (priority 1988, dated 1991)
Read-outs that look alike come from different tables or passages of the source.

Key:
[1] = test system: histamine-induced bronchoconstriction; assay: Reversal of histamine-induced bronchoconstriction in anesthetized guinea pigs; format: in vivo, guinea pig; settings: for ED50: Cavia porcellus, iv, read-out: Reversal of histamine-induced bronchoconstriction, guinea pigs, ED50 ± s.e.m. (N); for Reversal of histamine-induced bronchoconstriction, maximum effect, % (N) ± s.e.m.: maximum percent reversal, at highest dose
Description: Adult male guinea pigs, weighing […], were anesthetized with an intraperitoneal injection of urethane (1.5 gm/kg). After a midline neck incision, the carotid artery and jugular vein were cannulated using polyethylene tubing. The trachea was cannulated using a 15 gauge Leuer Stub. Animals were ventilated at a constant rate and volume (55 breaths per minute and 1 ml per […] body weight) using a Harvard Apparatus small animal respirator. Airway pressure was measured from a side port of the tracheal cannula, using a Statham pressure transducer. Airway pressure and blood pressure were recorded using a Gould physiograph. Body temperature was maintained with a Narco temperature control unit.
Baseline airway and blood pressures were recorded for ten minutes. Aerosolized histamine (0.01%) was then delivered to the airways via a DeVilbiss® ultrasonic nebulizer, inserted in-line between the respirator and the animal. After the histamine-induced bronchoconstriction reached a plateau, as evidenced by an increased airway pressure, a dose-response curve was determined for each compound. […] The maximum effect of each compound was determined from the reversal of bronchoconstriction, as the percent decrease in the bronchoconstrictor response, after administration of the highest dose of that compound.
The ED50 values and maximum effect (%) were calculated using SAS and PROBIT computer analysis. […] The maximum effect is the maximum percent reversal of histamine-induced bronchoconstriction produced by the test compound.

[2] = test system: antigen-induced bronchoconstriction; assay: Prevention of antigen-induced bronchoconstriction in ovalbumin-sensitized guinea pigs; format: in vivo, guinea pig; settings: 10 mg/kg, i.v., peak airway pressure increase as percent of vehicle animals
Text: Prevention of antigen-induced bronchoconstriction Male Hartley guinea pigs were given two intraperitoneal injections each containing 50 mcg ovalbumin in a 2:1 emulsion of Freund's complete adjuvant and sterile saline, for a total of 100 mcg ovalbumin per animal. At least three weeks post sensitization injection, sensitized guinea pigs (now approximately 400-600 g) were anesthetized with an intraperitoneal injection of urethane. The carotid artery, jugular vein and the trachea were cannulated. […] Airway pressure was measured and aortic blood pressure was monitored. Body temperature was maintained.
Following a stabilization period of approximately ten minutes, drug in vehicle or vehicle alone was administered intravenously in a volume of 1 ml. All drugs were tested at a dose of 10 mg/kg. One minute post injection, ovalbumin (10 mg/ml) was aerosolized into the airway via a DeVilbiss® ultrasonic nebulizer for a thirty minute period. Peak airway pressure attained during this thirty minute period was measured.

[3] = Cardiovascular effects (heart rate, blood pressure) in anesthetized guinea pigs; format: in vivo, guinea pig
Description: Aortic blood pressure was recorded from a pressure transducer and the signal was integrated to give a heart rate signal.
Each animal received a single intravenous injection of one compound. […] A group of control animals received injections of vehicle only. Changes in heart rate and blood pressure from pre-injection baseline values produced by drugs or vehicle were compared.

[4] = Emetic effects in ferrets; format: in vivo, ferret; settings: 100 mg/kg
Description: Male ferrets, 12-15 weeks old, were fasted overnight prior to experimentation. Animals were given intraperitoneal injections of 100 mg/kg of compound or were dosed with vehicle for controls. Animals were then placed in cages with feed and water and observed for signs of emesis.

Acute toxicity in mice = format: in vivo, mouse; settings: for Acute Toxicity, Approximate lethal dose: i.p.'; for Acute Toxicity (comments): animals showing the side effect
A2 - Adenosine receptor = target: T1, A2 - Adenosine receptor (Rattus norvegicus, UniProt P30543); assay: Adenosine receptor binding, [3H]NECA, rat striatum homogenate; settings: read-out: A2 - Adenosine receptor binding, Ki ± s.e.m.
T1 construct: rat striatum homogenate; from tissue; host or cells: rat striatum homogenate
T1 sequence (P30543 whole entry): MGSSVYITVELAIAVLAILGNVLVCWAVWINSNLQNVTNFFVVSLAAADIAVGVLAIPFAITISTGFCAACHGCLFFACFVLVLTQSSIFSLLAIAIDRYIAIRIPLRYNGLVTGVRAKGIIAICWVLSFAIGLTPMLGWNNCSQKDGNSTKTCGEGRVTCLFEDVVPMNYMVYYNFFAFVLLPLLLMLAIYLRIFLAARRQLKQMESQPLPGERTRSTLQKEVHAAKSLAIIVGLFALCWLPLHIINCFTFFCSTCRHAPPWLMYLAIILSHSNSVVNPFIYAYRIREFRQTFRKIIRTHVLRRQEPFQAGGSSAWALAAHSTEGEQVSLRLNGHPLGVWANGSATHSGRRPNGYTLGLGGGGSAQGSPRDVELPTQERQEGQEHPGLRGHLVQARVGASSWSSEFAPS
Description: A similar procedure utilizing rat striatum homogenate and [^3 H]NECA as ligand was employed to measure A2 -adenosine receptor binding.
The inhibition constants (Ki values) were calculated using EBDA, a log-logit iterative curve fitting program [McPhearson, Comput. Prog.

A1 - Adenosine receptor = target: T2, A1 - Adenosine receptor (Rattus norvegicus, UniProt P25099); assay: Adenosine receptor binding, [3H]cyclohexyladenosine, rat cortical membranes; settings: [3H]CHA, 23° C., pH 7.4, read-out: A1 - Adenosine receptor binding, Ki ± s.e.m.
T2 construct: rat cortical tissue was homogenized in ice cold 50 mM Tris HCl buffer; from tissue; host or cells: rat cerebral cortex membranes
T2 sequence (P25099 1-326): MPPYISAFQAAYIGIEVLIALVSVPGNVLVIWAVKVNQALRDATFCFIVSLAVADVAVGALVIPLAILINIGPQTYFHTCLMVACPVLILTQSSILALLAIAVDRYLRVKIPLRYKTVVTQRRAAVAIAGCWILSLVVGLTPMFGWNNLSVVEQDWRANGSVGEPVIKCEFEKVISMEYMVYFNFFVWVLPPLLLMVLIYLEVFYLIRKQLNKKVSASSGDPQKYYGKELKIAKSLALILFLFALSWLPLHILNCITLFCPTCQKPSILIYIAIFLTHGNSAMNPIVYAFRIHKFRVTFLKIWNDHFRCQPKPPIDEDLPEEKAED
Description: Briefly, rat cortical tissue was homogenized in ice cold 50 mM Tris HCl buffer (pH 7.4) using a Brinkman Polytron®. The homogenate was centrifuged at 48,000×g for 10 minutes and the resulting tissue pellet was suspended in fresh cold buffer to yield a tissue concentration of 10 mg (wet weight)/ml. […] Following this incubation, the tissue suspension was centrifuged as before and the resulting pellet was suspended in fresh buffer at a concentration of 7-10 mg tissue (wet weight)/ml. […] Dose-inhibition curves were generated with 10-12 concentrations of the test compound using triplicate incubations. The inhibition constants (Ki values) were calculated using EBDA, a log-logit iterative curve fitting program [McPhearson, Comput. Prog.

[5] = Solubility at the dose intended for the cardiovascular test; format: physicochemical; settings: dose for guinea pig i.v. cardiovascular test
phosphodiesterase = settings: cited from earlier work
[6] = guinea pigs, i.v., dose required to reverse the histamine response by 50%
[7] = guinea pigs, i.v., 2 × histamine-reversal ED50

SMILES	ED50 [1] [mg/kg]	Reversal of histamine-induced bronchoconstriction, maximum effect, % (N) ± s.e.m. ([1]; guinea pigs, i.v.) [%]	Prevention of antigen-induced bronchoconstriction, % control [2] [% control]	% Basal blood pressure (mm Hg) ([3]; guinea pig, in vivo, iv) [%]	% Basal heart rate (N) ([3]; guinea pig, in vivo, iv) [%]	Emetic effects, episodes/responder ± s.e. ([4]; ferrets, i.p., 1 hour) [episodes/responder]	Emetic effects, no. responding / no. tested in 1 hour ([4]; in vivo, ip)	Acute Toxicity, Approximate lethal dose (Acute toxicity in mice; N 3, route head 'p.o.) [mg/kg]	Acute Toxicity (comments) (Acute toxicity in mice)	Ki (A2 - Adenosine receptor) [nM]	ED50 [1, 6] [mg/kg]	Ki (A1 - Adenosine receptor) [nM]	solubility at 2 × ED50 [5]	% Basal blood pressure (mm Hg) [3, 7] [%]	% Basal heart rate (N) [3, 7] [%]	Emetic effects, no. responding / no. tested in 1 hour ([4]; ferrets, i.p., 1 hour)	Acute Toxicity, Approximate lethal dose (Acute toxicity in mice; second printed line of values, N 6, route head 'p.o.) [mg/kg]	inhibition of phosphodiesterase (phosphodiesterase)
Cn1c(=O)c2[nH]c(-c3ccccc3)nc2n(C)c1=O [1,3-Dimethyl-8-phenylxanthine]	> 50	22.0 ± 3.9	71.7 ± 1.6	94 ± 22	102 ± 9	0	0/4	< 250	sedation 3/3	644 ± 144	–	–	–	–	–	–	–	–
CCCn1c(=O)c2[nH]c(-c3ccccc3)nc2n(CCC)c1=O [1,3-Dipropyl-8-phenylxanthine]	–	33.8 ± 8.5	98.1 ± 12.4	–	–	–	–	> 250	–	116 ± 100	> 50	2.75 ± 0.29	insoluble	–	–	–	–	–
CCCn1c(=O)n(C)c(=O)c2[nH]c(-c3ccccc3)nc21 [1-Methyl-3-propyl-8-phenylxanthine, 1-Methyl-3-n-propyl-8-phenylxanthine]	–	56.3 ± 3.2	106.5 ± 9.7	–	–	–	–	> 250	–	93 ± 10.2	16.9 ± 2	6.3 ± 0.17	–	86 ± 10	104 ± 4	–	–	–
CCCn1c(=O)c2[nH]c(-c3ccccc3)nc2n(C)c1=O [3-Methyl-1-propyl-8-phenylxanthine, 3-Methyl-1-n-propyl-8-phenylxanthine]	–	79.0 ± 3.4	36.5 ± 2.0	–	–	2	–	> 500	sedation 6/6	553 ± 55.7	2.1 ± 0.4	–	–	134	100 ± 3	2/8	250 to 500	–
CC(C)Cn1c(=O)n(C)c(=O)c2[nH]cnc21 [IBMX, 3-isobutyl-1-methylxanthine]	–	–	–	–	–	–	–	–	–	–	–	–	–	–	–	–	–	potent inhibitors of phosphodiesterase
Cn1c(=O)c2[nH]cnc2n(C)c1=O [Theophylline]	35.1 ± 5.3	72.8 ± 6.6	–	–	–	10.7 ± 3.7	–	–	seizures 6/6	–	–	–	–	66 ± 8	132 ± 4	7/8	–	–
